Measured values from ChEMBL document CHEMBL1201862, “PubChem BioAssay data set” (2004).
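Briefly, cells in 96-well plates were exposed to five compound concentrations for 48 h, and endpoints were estimated by linear interpolation. The concentration for 50% growth inhibition is given as GI50.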 Active and inactive are the calls of the source. Rule as the data show it: active = GI50 up to about 1.1 µM and inactive = higher.

Experiments:
Assay in all cases: inhibition of tumour cell growth, NCI panel, 48 h
A549 = system: A549
K562 = system: K562
SNB-75 = system: SNB-75
SF-295 = system: SF-295
HCC 2998 = system: HCC 2998
IGROV-1 = system: IGROV-1
SNB-19 = system: SNB-19
TK-10 = system: TK-10
LOX IMVI = system: LOX IMVI
Malme-3M = system: Malme-3M
DMS-114 = system: DMS-114
M14 = system: M14
DMS-273 = system: DMS-273
NCI-H522 = system: NCI-H522
OVCAR-8 = system: OVCAR-8
NCI-H23 = system: NCI-H23
HL-60 = system: HL-60
OVCAR-5 = system: OVCAR-5
NCI-H460 = system: NCI-H460
OVCAR-3 = system: OVCAR-3
SK-MEL-2 = system: SK-MEL-2
HCT-15 = system: HCT-15
UO-31 = system: UO-31
HCT-116 = system: HCT-116
U-251 = system: U-251
SW-620 = system: SW-620
RXF 631 = system: RXF 631
SK-MEL-5 = system: SK-MEL-5
A498 = system: A498
XF498 = system: XF498
NCI-H226 = system: NCI-H226
HOP-92 = system: HOP-92
SNB-78 = system: SNB-78
SN12C = system: SN12C
UACC-62 = system: UACC-62
SK-OV-3 = system: SK-OV-3
KM-20L2 = system: KM-20L2
OVCAR-4 = system: OVCAR-4
UACC-257 = system: UACC-257
CAKI-1 = system: CAKI-1
HT-29 = system: HT-29
EKVX = system: EKVX
COLO 205 = system: COLO 205
HOP-62 = system: HOP-62
MOLT-4 = system: MOLT-4
HOP-18 = system: HOP-18
M19-MEL = system: M19-MEL
DLD-1 = system: DLD-1
KM12 = system: KM12
LXFL 529 = system: LXFL 529
SF-268 = system: SF-268
786-0 = system: 786-0
CCRF-CEM = system: CCRF-CEM
SF-539 = system: SF-539
RPMI-8226 = system: RPMI-8226
RXF 393 = system: RXF 393
MDA-MB-435 = system: MDA-MB-435
MDA-N = system: MDA-N
SR = system: SR
Hs-578T = system: Hs-578T
SK-MEL-28 = system: SK-MEL-28
MCF7 = system: MCF7
PC-3 = system: PC-3
BT-549 = system: BT-549
ACHN = system: ACHN
T47D = system: T47D
DU-145 = system: DU-145
MDA-MB-231 = system: MDA-MB-231

Measured: GI50

COC(=O)CCC1=NOC(CC2CC(CCC(=O)OC)=NO2)C1 (configuration not stated)
inactive: A549 > 100 µM | K562 > 100 µM | SNB-75 > 100 µM | SF-295 > 100 µM | HCC 2998 > 100 µM | IGROV-1 > 100 µM | SNB-19 > 100 µM | TK-10 > 100 µM | LOX IMVI > 100 µM | Malme-3M > 100 µM | DMS-114 > 100 µM | M14 > 100 µM | DMS-273 > 100 µM | NCI-H522 > 100 µM | OVCAR-8 > 100 µM | NCI-H23 > 100 µM | HL-60 > 100 µM | OVCAR-5 > 100 µM | NCI-H460 > 100 µM | OVCAR-3 > 100 µM | SK-MEL-2 > 100 µM | UO-31 > 100 µM | HCT-116 > 100 µM | U-251 > 100 µM | SW-620 > 100 µM | RXF 631 > 100 µM | SK-MEL-5 > 100 µM | A498 > 100 µM | XF498 > 100 µM | NCI-H226 > 100 µM | HOP-92 > 100 µM | SNB-78 > 100 µM | SN12C > 100 µM | UACC-62 > 100 µM | SK-OV-3 > 100 µM | KM-20L2 > 100 µM | OVCAR-4 > 100 µM | UACC-257 > 100 µM | CAKI-1 > 100 µM | HT-29 > 100 µM | EKVX > 100 µM | COLO 205 > 100 µM | HOP-62 > 100 µM | MOLT-4 > 100 µM | HOP-18 > 100 µM | M19-MEL > 100 µM | DLD-1 > 100 µM | KM12 > 100 µM | LXFL 529 > 100 µM | SF-268 > 100 µM | 786-0 > 100 µM | CCRF-CEM > 100 µM | SF-539 > 100 µM | RPMI-8226 > 100 µM | RXF 393 > 100 µM
> 100 µM: HCT-15

Cc1nc2c(o1)C(=O)c1ccccc1/C2=N\c1ccccc1
active: MDA-MB-435 0.352 µM | MDA-N 0.292 µM | M14 0.841 µM | MDA-MB-231 0.968 µM
2.25 µM: HCT-15
inactive: K562 2.62 µM | SNB-75 2.12 µM | SF-295 4.53 µM | HCC 2998 15.2 µM | IGROV-1 7.98 µM | SR 4.3 µM | SNB-19 3.96 µM | Hs-578T 1.62 µM | TK-10 20.7 µM | LOX IMVI 1.59 µM | Malme-3M 1.36 µM | DMS-114 1.48 µM | DMS-273 2.49 µM | NCI-H522 1.86 µM | OVCAR-8 2 µM | NCI-H23 1.38 µM | SK-MEL-28 2 µM | HL-60 2.42 µM | OVCAR-5 5.85 µM | NCI-H460 5.66 µM | OVCAR-3 1.59 µM | SK-MEL-2 1.46 µM | MCF7 2.37 µM | UO-31 2.98 µM | HCT-116 2.17 µM | U-251 1.76 µM | SW-620 2.58 µM | RXF 631 > 10 µM | SK-MEL-5 1.35 µM | A498 > 10 µM | XF498 2.86 µM | NCI-H226 13.6 µM | PC-3 2.03 µM | HOP-92 2.27 µM | SNB-78 3.22 µM | SN12C 2.04 µM | UACC-62 2.46 µM | SK-OV-3 17.4 µM | KM-20L2 20.5 µM | OVCAR-4 2.4 µM | UACC-257 2.05 µM | CAKI-1 17.9 µM | HT-29 10.2 µM | EKVX 5.78 µM | COLO 205 13.9 µM | HOP-62 2.45 µM | HOP-18 1.85 µM | BT-549 1.68 µM | M19-MEL 1.82 µM | ACHN 3.18 µM | T47D 2.52 µM | DLD-1 13.7 µM | KM12 6.07 µM | LXFL 529 3.23 µM | SF-268 4.01 µM | DU-145 1.74 µM | 786-0 8.38 µM | CCRF-CEM 4.04 µM | SF-539 2.9 µM | RPMI-8226 1.97 µM | RXF 393 1.57 µM
